According to ChEMBL document CHEMBL1201862, “PubChem BioAssay data set” (2004):
Counter-ions that a name gives are not always drawn. Activity calls are given as the source filed them.

Legend:
SN12K1 = assay: cells; type: functional; settings: Homo sapiens
Insulin-degrading enzyme [1] = biological target: T1, Insulin-degrading enzyme (Homo sapiens, UniProt P14735); assay: cellular IDE activation of Abeta substrate cleavage – fluorescence polarization, HEK cells, dose response (AID 588439); type: functional, cell-based
T1 sequence (P14735 whole entry): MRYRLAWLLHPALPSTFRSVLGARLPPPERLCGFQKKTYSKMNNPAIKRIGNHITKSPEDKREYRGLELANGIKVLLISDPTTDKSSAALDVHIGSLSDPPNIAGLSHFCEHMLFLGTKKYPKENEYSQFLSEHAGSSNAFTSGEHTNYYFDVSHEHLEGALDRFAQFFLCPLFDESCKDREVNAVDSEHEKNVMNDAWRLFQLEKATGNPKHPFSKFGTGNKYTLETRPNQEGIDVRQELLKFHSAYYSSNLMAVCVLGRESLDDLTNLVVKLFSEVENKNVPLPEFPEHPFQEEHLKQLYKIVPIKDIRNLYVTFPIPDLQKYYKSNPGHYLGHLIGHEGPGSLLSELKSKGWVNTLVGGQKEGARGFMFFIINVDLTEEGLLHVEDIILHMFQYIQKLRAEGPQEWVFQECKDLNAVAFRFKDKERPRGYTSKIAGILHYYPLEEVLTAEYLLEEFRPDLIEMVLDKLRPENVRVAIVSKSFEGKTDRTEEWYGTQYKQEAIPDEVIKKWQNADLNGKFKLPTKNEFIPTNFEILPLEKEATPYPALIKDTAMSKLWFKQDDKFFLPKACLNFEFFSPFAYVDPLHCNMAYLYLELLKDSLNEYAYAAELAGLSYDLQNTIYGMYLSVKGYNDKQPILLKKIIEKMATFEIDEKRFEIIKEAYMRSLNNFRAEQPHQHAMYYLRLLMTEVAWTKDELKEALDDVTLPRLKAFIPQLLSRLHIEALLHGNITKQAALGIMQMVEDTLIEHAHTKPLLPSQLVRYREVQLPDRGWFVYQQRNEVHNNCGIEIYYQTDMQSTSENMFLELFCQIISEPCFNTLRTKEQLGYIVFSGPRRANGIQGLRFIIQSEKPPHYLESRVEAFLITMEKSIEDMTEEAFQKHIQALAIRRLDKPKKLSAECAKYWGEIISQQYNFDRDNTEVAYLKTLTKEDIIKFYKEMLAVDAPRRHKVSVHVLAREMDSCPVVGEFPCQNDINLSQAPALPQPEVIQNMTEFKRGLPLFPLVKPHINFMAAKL

BJ [2] = assay: growth inhibition of engineered Ras-driven BJ cells – cell-based, alamar blue fluorescence, cherrypicked samples, dose response (AID 2631); type: functional; settings: Homo sapiens;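 note: confirmatory dose-response assay in RAS-dependent BJ fibroblasts engineered with TERT, LT and ST, with cytotoxicity read by fluorescence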
[3] = CellTiter-Glo luminescence survival assay, SW480 colon tumor line, concentration-response curve, half-maximal inhibitory concentration (AID 1117338); type: functional
[4] = Reduced DLD-1 viability, concentration-response, CellTiter-Glo luminescence (AID 1117352); type: functional
BJ [5] = assay: BJ-TERT-LT-ST fibroblast viability loss – cell-based, RAS-independent, luminescence, dose response (AID 1935); type: functional; settings: Homo sapiens;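 note: BJ fibroblasts immortalized with TERT plus LT and ST oncogenes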
Insulin-degrading enzyme [6] = biological target: T1, Insulin-degrading enzyme; assay: recombinant IDE activation, cell-free – biochemical, fluorescence polarization, counter-screen for IDE activator project, dose response (AID 588681)
ORF 73 = ORF 73 (Human herpesvirus 8, UniProt O40947); assay: KSHV LANA DNA-binding disruption – biochemical, fluorescence polarization, cherry-picked samples, dose response (AID 504725); set-up: species or system Human gammaherpesvirus 8;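 note: fluorescence polarization of a labeled DNA duplex reporting LANA DNA binding; potency is for inhibitors that block LANA binding to the DNA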
Chain of ORF 73 (O40947 whole entry): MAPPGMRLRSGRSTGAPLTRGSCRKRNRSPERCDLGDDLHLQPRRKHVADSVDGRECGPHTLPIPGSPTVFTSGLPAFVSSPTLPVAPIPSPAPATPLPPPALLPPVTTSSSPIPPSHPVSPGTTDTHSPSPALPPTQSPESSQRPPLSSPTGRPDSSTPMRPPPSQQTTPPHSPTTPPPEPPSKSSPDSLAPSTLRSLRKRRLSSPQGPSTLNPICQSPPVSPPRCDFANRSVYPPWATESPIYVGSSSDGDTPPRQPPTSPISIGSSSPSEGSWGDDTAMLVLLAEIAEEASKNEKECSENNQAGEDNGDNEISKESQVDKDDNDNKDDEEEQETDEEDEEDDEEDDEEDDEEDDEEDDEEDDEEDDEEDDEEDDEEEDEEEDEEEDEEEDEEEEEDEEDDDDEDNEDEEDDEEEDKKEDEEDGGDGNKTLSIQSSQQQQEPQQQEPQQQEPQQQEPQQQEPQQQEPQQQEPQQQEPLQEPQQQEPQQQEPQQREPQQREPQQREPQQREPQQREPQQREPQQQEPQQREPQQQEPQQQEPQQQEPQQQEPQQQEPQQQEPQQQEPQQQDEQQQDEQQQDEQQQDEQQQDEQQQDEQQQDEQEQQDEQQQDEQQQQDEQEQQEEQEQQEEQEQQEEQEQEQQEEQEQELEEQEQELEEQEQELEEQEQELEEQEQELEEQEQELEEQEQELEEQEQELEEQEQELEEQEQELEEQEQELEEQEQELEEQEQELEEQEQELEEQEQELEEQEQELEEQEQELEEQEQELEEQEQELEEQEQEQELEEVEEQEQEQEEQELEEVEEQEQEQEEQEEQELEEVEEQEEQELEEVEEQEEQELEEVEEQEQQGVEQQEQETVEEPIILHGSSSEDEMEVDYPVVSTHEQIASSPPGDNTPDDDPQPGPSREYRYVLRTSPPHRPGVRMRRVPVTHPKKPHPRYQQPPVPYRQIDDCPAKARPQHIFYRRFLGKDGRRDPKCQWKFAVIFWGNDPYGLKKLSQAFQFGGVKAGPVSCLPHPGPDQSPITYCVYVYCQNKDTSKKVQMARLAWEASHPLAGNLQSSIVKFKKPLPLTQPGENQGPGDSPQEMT

[7] = HEK-293T viability loss after treatment – luminescence, T-cell screen hits, cytotoxicity control for TCR NF-kB inhibitor project, dose response (AID 489026); type: functional, cell-based;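 note: cells exposed to compound about 14 hours before the viability readout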
P388 = assay: cells; type: functional; settings: Mus musculus
Paired box protein Pax-8 = Paired box protein Pax-8 (Homo sapiens, UniProt Q06710); assay: PAX8 transcriptional activity inhibition in RMG-I – RMG-I cells, luciferase, cherry-pick, dose response (AID 687027); type: functional, cell-based;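 note: luciferase reporter driven by Pax8 target thyroperoxidase promoter measured by SteadyGlo luminescence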
Chain of Paired box protein Pax-8 (Q06710 whole entry): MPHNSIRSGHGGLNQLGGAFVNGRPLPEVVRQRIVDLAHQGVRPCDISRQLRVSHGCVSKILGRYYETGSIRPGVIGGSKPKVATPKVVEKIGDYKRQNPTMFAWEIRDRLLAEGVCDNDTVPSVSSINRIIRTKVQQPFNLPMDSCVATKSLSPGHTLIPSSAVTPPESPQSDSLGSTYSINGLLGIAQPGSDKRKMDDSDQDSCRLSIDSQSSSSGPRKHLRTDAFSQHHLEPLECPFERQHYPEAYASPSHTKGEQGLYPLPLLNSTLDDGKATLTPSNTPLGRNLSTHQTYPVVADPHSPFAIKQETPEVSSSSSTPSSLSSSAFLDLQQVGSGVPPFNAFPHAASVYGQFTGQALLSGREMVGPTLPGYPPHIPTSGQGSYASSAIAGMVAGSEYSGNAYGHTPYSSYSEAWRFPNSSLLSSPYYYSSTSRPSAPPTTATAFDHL

HEK293 [8] = assay: membrane integrity loss in HEK cells – cell-based, fluorescence, cytotoxicity control for IDE activator project, dose response (AID 588440); type: functional; settings: Homo sapiens;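 note: cytotoxicity by LDH release measuring loss of membrane integrity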
[9] = biological target: UDP-galactopyranose mutase (Mycobacterium tuberculosis, UniProt P9WIQ1); assay: Inhibitors of Mycobacterium tuberculosis UDP-galactopyranose mutase (UGM) enzyme Measured in Biochemical System Using Plate Reader - 2105-02_Inhibitor_Dose_CherryPick_Activity. [Related pubchem assays (depositor defined):AID504439]
Chain of UDP-galactopyranose mutase (P9WIQ1 whole entry): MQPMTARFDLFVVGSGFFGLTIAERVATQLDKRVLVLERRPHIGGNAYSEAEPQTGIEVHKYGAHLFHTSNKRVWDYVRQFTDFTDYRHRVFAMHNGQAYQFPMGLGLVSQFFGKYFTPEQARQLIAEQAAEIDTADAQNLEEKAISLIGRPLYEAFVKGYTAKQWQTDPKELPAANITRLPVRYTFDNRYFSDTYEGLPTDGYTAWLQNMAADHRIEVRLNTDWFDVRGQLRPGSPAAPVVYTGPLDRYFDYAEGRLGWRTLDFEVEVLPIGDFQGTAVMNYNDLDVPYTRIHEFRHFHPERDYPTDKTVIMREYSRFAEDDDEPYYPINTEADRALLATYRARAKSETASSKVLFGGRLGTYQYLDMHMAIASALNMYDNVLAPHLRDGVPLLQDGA

[10] = RKO cell viability reduction, dose response, CellTiter-Glo luminescence (AID 1117322); type: functional
[11] = DRD fibroblast viability loss – cell-based, non-viral oncogenic, luminescence, dose response (AID 1934); type: functional; settings: Homo sapiens
[12] = HCT116 cell viability decrease, GSK3B pretreatment – CellTiter-Glo, IC50, dose response (AID 1117339); type: functional; settings: HCT-116
[13] = SNU-C1 cell viability reduction, dose response, CellTiter-Glo luminescence (AID 1117323); type: functional, cell-based
[14] = cytotoxicity toward HT-29 cells – cell-based, CellTiter-Glo luminescence, IC50, dose response (AID 1117330); type: functional
BJ [15] = assay: BJ-TERT fibroblast viability loss – cell-based, RAS-independent, luminescence, dose response (AID 1933); type: functional; settings: Homo sapiens
[16] = rise of 4N DNA cells, HeLa – IC50, dose response (AID 1117351); type: functional, cell-based
BJ [17] = assay: cells; type: functional, cell-based; settings: Homo sapiens
HEK293 [18] = assay: optical interference in Abeta FP readout, dose response, artefact control for IDE activator project, biochemical, fluorescence polarization (AID 588442); type: functional, cell-based; settings: Homo sapiens
[19] = rise of 2N DNA cells, HeLa – IC50, dose response (AID 1117349); type: functional, cell-based
[20] = cytotoxicity toward HCT116 cells – cell-based, CellTiter-Glo luminescence, IC50, dose response (AID 1117332); type: functional; settings: HCT-116
Keap1/Nrf2 = Keap1/Nrf2 (Homo sapiens, UniProt Q14145); assay: disruptors of Keap1 binding to Nrf2 peptide – biochemical, fluorescence polarization, cherry-picked samples, dose response (AID 588683)
Chain of Keap1/Nrf2 (Q16236 whole entry): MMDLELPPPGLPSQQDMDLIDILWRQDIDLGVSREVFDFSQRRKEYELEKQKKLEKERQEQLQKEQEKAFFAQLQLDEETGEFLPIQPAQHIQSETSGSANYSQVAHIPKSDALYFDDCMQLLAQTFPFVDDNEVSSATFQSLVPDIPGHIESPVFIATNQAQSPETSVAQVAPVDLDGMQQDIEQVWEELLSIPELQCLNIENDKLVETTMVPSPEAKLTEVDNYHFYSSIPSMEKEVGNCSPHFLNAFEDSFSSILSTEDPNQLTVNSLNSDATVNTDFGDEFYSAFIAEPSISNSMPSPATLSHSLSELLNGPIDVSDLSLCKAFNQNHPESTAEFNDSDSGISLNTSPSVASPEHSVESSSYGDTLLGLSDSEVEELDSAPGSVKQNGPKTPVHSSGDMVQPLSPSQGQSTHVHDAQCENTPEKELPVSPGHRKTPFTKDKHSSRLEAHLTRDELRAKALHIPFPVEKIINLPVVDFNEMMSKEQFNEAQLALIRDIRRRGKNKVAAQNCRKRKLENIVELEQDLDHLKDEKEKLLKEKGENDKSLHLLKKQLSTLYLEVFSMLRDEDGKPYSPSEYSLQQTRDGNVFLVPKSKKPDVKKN
Chain of Keap1/Nrf2 (Q14145 whole entry): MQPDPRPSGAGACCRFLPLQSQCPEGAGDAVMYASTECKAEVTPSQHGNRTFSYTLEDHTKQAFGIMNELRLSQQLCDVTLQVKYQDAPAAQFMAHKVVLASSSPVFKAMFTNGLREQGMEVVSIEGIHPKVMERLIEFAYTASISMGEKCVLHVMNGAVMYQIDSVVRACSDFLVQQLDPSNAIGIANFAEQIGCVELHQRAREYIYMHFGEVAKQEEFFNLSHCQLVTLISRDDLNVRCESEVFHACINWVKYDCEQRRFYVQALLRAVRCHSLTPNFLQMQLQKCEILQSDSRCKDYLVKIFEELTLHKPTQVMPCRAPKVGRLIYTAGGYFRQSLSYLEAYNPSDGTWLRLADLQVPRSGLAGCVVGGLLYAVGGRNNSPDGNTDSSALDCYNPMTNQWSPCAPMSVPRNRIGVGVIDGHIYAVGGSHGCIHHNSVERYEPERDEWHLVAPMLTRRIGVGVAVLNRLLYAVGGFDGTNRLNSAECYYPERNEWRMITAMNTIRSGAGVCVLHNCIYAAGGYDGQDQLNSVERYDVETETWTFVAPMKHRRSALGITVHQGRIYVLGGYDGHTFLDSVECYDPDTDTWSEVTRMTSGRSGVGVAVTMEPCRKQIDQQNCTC

HeLa = assay: viability loss in HeLa cells – cell-based, 24 h, cherry-picked samples, cytotoxicity control, dose response (AID 504726); type: functional; settings: Homo sapiens;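 note: potency for cytotoxicity as loss of luminescence signal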
P388/ADR = assay: cells; type: functional; settings: Mus musculus
[21] = acridine orange displacement from DNA – biochemical, fluorescence polarization, cherry-pick, artefact control for RAD54 inhibitor project, dose response (AID 651673); type: functional
HEK293 [22] = assay: cells; type: functional, cell-based; settings: Homo sapiens
[23] = biological target: T2, DNA repair and recombination protein RAD54-like (Homo sapiens, UniProt Q92698); assay: RAD54 Holliday junction migration blockers – biochemical, fluorescence, cherry-picked samples, dose series, confirmation (AID 651657); type: functional
T2 sequence (Q92698 whole entry): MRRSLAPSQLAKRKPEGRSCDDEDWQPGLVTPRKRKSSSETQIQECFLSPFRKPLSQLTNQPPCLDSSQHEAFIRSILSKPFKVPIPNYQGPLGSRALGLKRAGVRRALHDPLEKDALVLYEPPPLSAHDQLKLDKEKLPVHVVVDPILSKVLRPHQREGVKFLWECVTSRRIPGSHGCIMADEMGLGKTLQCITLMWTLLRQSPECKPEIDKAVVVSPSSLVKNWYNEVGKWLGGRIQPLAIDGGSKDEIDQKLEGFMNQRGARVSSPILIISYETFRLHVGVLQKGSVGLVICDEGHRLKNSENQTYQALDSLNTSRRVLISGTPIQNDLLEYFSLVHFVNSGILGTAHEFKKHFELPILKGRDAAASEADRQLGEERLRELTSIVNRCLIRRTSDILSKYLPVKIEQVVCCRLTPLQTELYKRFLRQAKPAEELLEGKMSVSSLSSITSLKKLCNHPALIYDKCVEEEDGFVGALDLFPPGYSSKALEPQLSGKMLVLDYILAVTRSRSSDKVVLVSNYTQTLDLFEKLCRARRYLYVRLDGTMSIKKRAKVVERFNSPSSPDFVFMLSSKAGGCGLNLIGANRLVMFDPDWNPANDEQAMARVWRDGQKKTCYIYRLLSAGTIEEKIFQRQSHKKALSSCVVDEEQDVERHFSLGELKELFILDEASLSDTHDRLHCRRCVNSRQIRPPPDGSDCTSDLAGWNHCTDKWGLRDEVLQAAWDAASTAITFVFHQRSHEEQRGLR

HEK293 [24] = assay: cells; settings: Homo sapiens
[25] = biological target: T3, DNA repair protein RAD52 homolog (Homo sapiens, UniProt P43351); type: functional, biochemical
T3 sequence (P43351 whole entry): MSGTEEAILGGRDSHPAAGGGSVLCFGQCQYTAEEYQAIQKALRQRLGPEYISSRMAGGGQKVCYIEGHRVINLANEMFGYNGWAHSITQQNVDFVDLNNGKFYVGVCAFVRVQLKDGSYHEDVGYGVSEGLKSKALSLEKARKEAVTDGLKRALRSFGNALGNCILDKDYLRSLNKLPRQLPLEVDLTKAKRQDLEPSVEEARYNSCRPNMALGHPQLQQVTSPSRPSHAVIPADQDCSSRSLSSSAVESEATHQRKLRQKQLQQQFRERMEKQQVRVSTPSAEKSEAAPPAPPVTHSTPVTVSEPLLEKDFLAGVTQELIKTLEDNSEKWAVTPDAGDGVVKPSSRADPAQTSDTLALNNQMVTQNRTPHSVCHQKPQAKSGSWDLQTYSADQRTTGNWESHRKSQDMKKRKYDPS

HEK293 [26] = assay: cells; settings: Homo sapiens; remark: listed apart in the source
[27] = biological target: T4, Nuclear receptor subfamily 0 group B member 1 (Homo sapiens, UniProt P51843); assay: Luminescence-based cell-based high throughput dose response assay for inhibitors of the orphan nuclear receptor subfamily 0, group B, member 1 (DAX1; NR0B1). [Related pubchem assays (depositor defined):AID504766, AID504790]; type: functional
T4 sequence (P51843 whole entry): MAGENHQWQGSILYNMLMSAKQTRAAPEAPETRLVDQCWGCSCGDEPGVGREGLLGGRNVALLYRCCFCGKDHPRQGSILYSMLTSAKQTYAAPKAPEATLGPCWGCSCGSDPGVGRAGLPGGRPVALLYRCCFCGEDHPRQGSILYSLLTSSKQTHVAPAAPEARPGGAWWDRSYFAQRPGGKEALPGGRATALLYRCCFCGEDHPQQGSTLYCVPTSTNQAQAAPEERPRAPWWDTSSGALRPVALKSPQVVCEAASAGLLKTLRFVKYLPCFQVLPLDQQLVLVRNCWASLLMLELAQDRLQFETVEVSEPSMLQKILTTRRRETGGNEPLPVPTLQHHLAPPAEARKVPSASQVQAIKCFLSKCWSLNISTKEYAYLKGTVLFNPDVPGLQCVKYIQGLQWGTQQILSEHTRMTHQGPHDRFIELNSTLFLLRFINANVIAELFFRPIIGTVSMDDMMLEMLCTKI

INS1 = assay: INS-1E survival protection against cytokine death – cell-based, luminescence, retest, dose response (AID 449756); type: functional; settings: Rattus norvegicus;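 note: cell death triggered by IL-1 beta plus TNF-alpha plus IFN-gamma mixture; protective hits raise ATP signal compared with cytokine alone wells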
[28] = loss of viability in HepG2 cells – cell-based, CellTiter-Glo, cherry-picked, cytotoxicity control for Shn3 inhibitor project, dose response (AID 624134); type: functional
[29] = reduction of Shn3 3'UTR-driven luciferase in osteoblasts – cell-based, Clone20 osteoblasts, firefly luciferase, cherry-picked, dose response (AID 624132); type: functional;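 note: firefly luciferase luminescence from reporter carrying the Shn3 3'UTR in osteoblasts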
Jurkat = assay: blockers of NF-kB activation in T cells – Jurkat, luciferase reporter, luminescence, B- and T-cell, dose response (AID 489004); type: functional, cell-based; settings: Homo sapiens;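 note: NF-kB luciferase reporter Jurkat cells stimulated with PMA plus ionomycin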
[30] = non-specific 3'UTR reporter inhibition in Clone20-Shn3RL – cell-based, Renilla luciferase, cherry-picked, counter-screen for Shn3 inhibitor project, dose response (AID 624133); type: functional
cells = type: functional, cell-based; settings: HEK-CNG
Galanin receptor type 2 = Galanin receptor type 2 (Homo sapiens, UniProt O43603); assay: Dose Response cell-based high-throughput screening assay to identify antagonists of galanin receptor 2 (GALR2). [Related pubchem assays: 828, 866 ]; type: functional
Chain of Galanin receptor type 2 (O43603 whole entry): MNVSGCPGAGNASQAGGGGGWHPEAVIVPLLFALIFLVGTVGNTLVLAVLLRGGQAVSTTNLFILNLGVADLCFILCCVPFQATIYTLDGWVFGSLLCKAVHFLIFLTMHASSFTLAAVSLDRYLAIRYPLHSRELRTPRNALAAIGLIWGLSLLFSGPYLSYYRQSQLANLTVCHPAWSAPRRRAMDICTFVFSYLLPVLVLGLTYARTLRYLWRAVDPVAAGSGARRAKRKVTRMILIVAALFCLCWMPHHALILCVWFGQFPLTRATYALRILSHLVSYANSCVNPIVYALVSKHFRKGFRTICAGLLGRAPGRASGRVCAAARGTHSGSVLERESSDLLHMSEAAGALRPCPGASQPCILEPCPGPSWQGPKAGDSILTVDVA

[31] = HEK-293T viability loss, compound-treated – cell-based, uHTS hits, cytotoxicity control for B/T-cell NF-kB inhibitor project, dose response (AID 489019); type: functional;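 note: IC50 reflects cytotoxicity as loss of cell viability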
Galanin receptor type 3 = Galanin receptor type 3 (Homo sapiens, UniProt O60755); assay: Fluorescence-based cell-based primary high throughput dose response assay to identify antagonists of the Galanin Receptor 3 (GalR3).; type: functional
Chain of Galanin receptor type 3 (O60755 whole entry): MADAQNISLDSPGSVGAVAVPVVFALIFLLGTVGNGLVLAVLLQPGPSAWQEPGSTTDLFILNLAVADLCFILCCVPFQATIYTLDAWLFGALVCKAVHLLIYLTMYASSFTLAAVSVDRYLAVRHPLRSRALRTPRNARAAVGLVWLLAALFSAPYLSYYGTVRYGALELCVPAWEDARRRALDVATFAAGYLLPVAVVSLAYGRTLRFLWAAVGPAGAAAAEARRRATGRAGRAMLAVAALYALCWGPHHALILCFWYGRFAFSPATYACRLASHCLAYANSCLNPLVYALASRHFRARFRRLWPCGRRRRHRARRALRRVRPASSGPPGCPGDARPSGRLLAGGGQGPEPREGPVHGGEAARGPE

CC[C@@]1(O)C(=O)OCc2c1cc1n(c2=O)Cc2cc3c(CN(C)C)c(O)ccc3nc2-1 [TOPOTECAN HYDROCHLORIDE]
active: GI50 (SN12K1) 26.7 nM | EC50 (BJ [2]) 19.8 nM | IC50 [3] 233 nM | IC50 [4] 177 nM | EC50 (BJ [5]) 159 nM | AC50 (ORF 73) 2150 nM | GI50 (P388) 29 nM | AC50 (Paired box protein Pax-8) < 260 nM | AC50 [9] 6860 nM | IC50 [10] 34.2 nM | EC50 [11] 549 nM | IC50 [12] 1.44 nM | IC50 [13] 301 nM | IC50 [14] 24.6 nM | EC50 (BJ [15]) 11300 nM | EC50 (BJ [17]) 246 nM | IC50 [19] 13.6 nM | IC50 [20] 34.1 nM | AC50 (Keap1/Nrf2) 3700 nM | AC50 (HeLa) 17100 nM | GI50 (P388/ADR) 136 nM
inactive: EC50 (Insulin-degrading enzyme [1]) > 54700 nM | EC50 (Insulin-degrading enzyme [6]) > 54700 nM | IC50 [7] > 80000 nM | IC50 (HEK293 [8]) > 89200 nM | IC50 [16] > 10000 nM | EC50 (HEK293 [18]) > 54700 nM

COc1cc2c3c(cccc3c1)C(=O)N(CCN1CCCC1)C2=O
inactive: IC50 (HEK293 [22]) > 67600 nM | EC50 (HEK293 [24]) > 59700 nM | EC50 (HEK293 [26]) > 59700 nM | IC50 [27] > 67600 nM
active: AC50 [21] 37100 nM | AC50 [23] 2160 nM | AC50 [25] 5720 nM

COc1ccc(CCNc2c(C)c(C)nc3ncnn23)cc1
> 42000 nM (not active): IC50 (Galanin receptor type 2)
inactive: IC50 (Jurkat) > 80000 nM | EC50 (cells) > 29900 nM | IC50 [31] > 80000 nM
active: AC50 (INS1) 2570 nM | AC50 [28] 25600 nM | AC50 [29] 565 nM | AC50 [30] < 260 nM | IC50 (Galanin receptor type 3) 1310 nM
